Results as given in publication PMC6175903, “Tuneable poration: host defense peptides as sequence probes for antimicrobial mechanisms” (Scientific Reports, 2018).
Like-named read-outs stand apart in the source and are kept apart here. Marks after values point to notes of the source that are not given here. Bridge positions count the residues as written; N and C are the ends. Square brackets hold non-standard residues; d marks the D form. Ends that are not written are not given here. Peptide text beside a SMILES is read from it. * marks the point of attachment. X1 = CC[C@H](C)CCCCC(=O)*; Dab = NCC[C@H](N)C(=O)O

Experiments:
[1] = tested on: S. typhimurium DA23899 waaY, pmrB, phoP; assay: microbe, parasite or virus in culture; type: cell-based; settings: for MIC: Salmonella enterica, TYPHIMURIUM, 24 h, read-out: Minimum inhibitory concentrations; for Minimum inhibitory concentrations: S. typhimurium mutant DA23899 waaY, pmrB, phoP, broth microdilution, 24 h at 37 °C, triplicate
Description: (§1) To explore these variations, the peptides were tested against cross-resistant strains of S. typhimurium, which were experimentally derived from the wild type bacterium subjected to increasing concentrations of pore-forming human HDPs[55]. Three genetic mutations were selected as candidate contributors to resistance and were reconstituted in the wild type genetic background, giving rise to the strains given in Table 2. One strain has the waaY gene mutated. This gene encodes for WaaY kinase that adds a phosphate group to the heptose II residue in the LPS inner core. The deactivation of the gene leads to decreased susceptibility to HDPs[56], as a result of reducing peptide binding to cell surfaces to the levels below those necessary to lyse the bacterium. Two other strains were mutated in pmrB and phoP genes, both of which are involved in masking phosphate groups (diminished charge) and influencing membrane fluidity (restricted motion)[58]. Finally, the fourth strain combined all three mutations (Table 2).
(§2) Minimum inhibitory concentrations (MICs) were determined by broth microdilution on P. aeruginosa (ATCC27853), E. coli (K12), S. aureus (ATCC6538), M. luteus (NCIMB13267), B. subtilis (ATCC6633), S. typhimurium (DA6192) and E. faecalis (OG1X) according to the Clinical and Laboratory Standards Institute and as recommended for antimicrobial peptide testing. Typically, 100 μL of 0.5–1 × 10^6 CFU per ml of each bacterium in Mueller Hinton media broth (Oxoid) were incubated in 96-well polystyrene microtiter plates with 100 μL of serial twofold dilutions of the peptides (from 100 to 0 μM) at 37 °C on a 3D orbital shaker. The absorbance was measured after peptide addition at 600 nm using a Victor 2 plate reader (Perkin-Elmer). MICs were defined as the lowest peptide concentration after 24 h at 37 °C. The mutant strains of S. typhimurium, named using the original nomenclature, were kindly provided by Dan Andersson[55].

[2] = tested on: S. typhimurium DA22427 waaY (del bp17FS); assay: microbe, parasite or virus in culture; type: cell-based; settings: for MIC: Salmonella enterica, TYPHIMURIUM, 24 h, read-out: Minimum inhibitory concentrations; for Minimum inhibitory concentrations: S. typhimurium mutant DA22427 waaY (del bp17FS), broth microdilution, 24 h at 37 °C, triplicate
Description: as §1, §2

[3] = tested on: P. aeruginosa (ATCC27853); assay: microbe, parasite or virus in culture; type: cell-based; settings: read-out: Minimum inhibitory concentrations
Description: as §2

B. subtilis (ATCC6633) = assay: microbe, parasite or virus in culture; type: cell-based; settings: read-out: Minimum inhibitory concentrations
Description: as §2

E. coli (K12) = assay: microbe, parasite or virus in culture; type: cell-based; settings: read-out: Minimum inhibitory concentrations
Description: as §2

S. aureus (ATCC6538) = assay: microbe, parasite or virus in culture; type: cell-based; settings: read-out: Minimum inhibitory concentrations
Description: as §2, with “Typically, 100 μL of 0.5–1 × 10^6 CFU per ml of each bacterium in Mueller Hinton media broth (Oxoid) were incubated in 96-well polystyrene microtiter plates with 100 μL of serial twofold dilutions of the peptides (from 100 to 0 μM) at 37 °C on a 3D orbital shaker.” left out

S. typhimurium (DA6192) = assay: microbe, parasite or virus in culture; type: cell-based; settings: 24 h at 37 °C, triplicate, read-out: Minimum inhibitory concentrations
Description: as §2, with “Typically, 100 μL of 0.5–1 × 10^6 CFU per ml of each bacterium in Mueller Hinton media broth (Oxoid) were incubated in 96-well polystyrene microtiter plates with 100 μL of serial twofold dilutions of the peptides (from 100 to 0 μM) at 37 °C on a 3D orbital shaker.” left out

M. luteus (NCIMB13267) = assay: microbe, parasite or virus in culture; type: cell-based; settings: read-out: Minimum inhibitory concentrations
Description: as §2, with “Typically, 100 μL of 0.5–1 × 10^6 CFU per ml of each bacterium in Mueller Hinton media broth (Oxoid) were incubated in 96-well polystyrene microtiter plates with 100 μL of serial twofold dilutions of the peptides (from 100 to 0 μM) at 37 °C on a 3D orbital shaker.” left out

human erythrocytes = settings: for LC50, median (50%) lethal concentration: human erythrocytes; for hemolysis: 250 µM
Description: Hemolysis was determined by incubating a 10% (vol/vol) suspension of human erythrocytes with peptides. Erythrocytes were rinsed four times in 10 mM phosphate buffer saline (PBS), pH 7.2, by repeated centrifugation and re-suspension (3 min at 3000 × g). Erythrocytes were incubated at room temperature for 1 h in either deionized water (fully haemolysed control), PBS, or with peptide in PBS. After centrifugation at 10,000 × g for 5 min, the supernatant was separated from the pellet, and the absorbance was measured at 550 nm. Absorbance of the suspension treated with deionized water defined complete hemolysis. […] All tests were done in triplicate.

[4] = tested on: S. typhimurium DA23307 phoP (D23N); type: cell-based; settings: S. typhimurium mutant DA23307 phoP (D23N); broth microdilution, 24 h at 37 °C, triplicate
Description: as §1, §2

[5] = tested on: S. typhimurium DA23175 pmrB (R13H); type: cell-based; settings: S. typhimurium mutant DA23175 pmrB (R13H); broth microdilution, 24 h at 37 °C, triplicate
Description: as §1, §2

[6] = for comparison, naturally occurring HDPs; cited from earlier work
Description: The improved amphipathicity of CecM compared to CecB was evaluated by calculating the mean hydrophobic moment using HeliQuest[70]. The mean hydrophobic moment is a two-dimensional vector sum which provides a direct, quantitative measure of amphipathicity in regular repeats. The mean hydrophobic moment increases from CecB (0.296) to CecM (0.350). For comparison, values for PGLa and magainin, two naturally occurring HDPs, are 0.260 and 0.286, respectively. Percentage of secondary structure elements was calculated using STRIDE[73]. Oligomerisation simulations were performed over 500 ns fo ...

[7] = S. typhimurium DA6192 (wild type, Table 2), broth microdilution
[8] = 10% (vol/vol) suspension in PBS pH 7.2, 1 h at room temperature, absorbance 550 nm, triplicate (Table 1)
[9] = S. typhimurium (Table 1), broth microdilution (CLSI), Mueller Hinton broth, absorbance 600 nm
[10] = M. luteus, broth microdilution (CLSI), Mueller Hinton broth, 24 h at 37 °C, absorbance 600 nm, triplicate
[11] = P. aeruginosa, Ala-d3 ChoM mutants (Table S6), broth microdilution
[12] = E. coli, Ala-d3 ChoM mutants (Table S6), broth microdilution
[13] = S. aureus, Ala-d3 ChoM mutants (Table S6), broth microdilution

Row | Compound | MIC (S. typhimurium (DA6192); [7]) [µM] | LC50, median (50%) lethal concentration (human erythrocytes; [8]) | MIC (S. typhimurium (DA6192); [9]) [µM] | MIC (M. luteus (NCIMB13267); [10]) [µM] | Minimum inhibitory concentrations [4] [µM] | Minimum inhibitory concentrations [5] [µM] | Minimum inhibitory concentrations [1] [µM] | Minimum inhibitory concentrations [2] [µM] | further results
1 | CO/N=C(\C(=O)N[C@@H]1C(=O)N2C(C(=O)O)=C(CSc3nc(=O)c(=O)[nH]n3C)CS[C@H]12)c1csc(N)n1 [ceftriaxone] | <1 | UD (UD is for undetectable (>1000)) |  |  |  |  |  |  | MIC [1]: < 1 µM; MIC [2]: < 1 µM; MIC ([3]; Pseudomonas aeruginosa, ATCC27853, P. aeruginosa, broth microdilution (CLSI), Mueller Hinton broth, serial twofold dilutions 100 to 0 μM, 24 h at 37 °C, absorbance 600 nm, triplicate): > 25 µM; MIC (B. subtilis (ATCC6633); Bacillus subtilis, ATCC6633, B. subtilis, broth microdilution (CLSI), Mueller Hinton broth, serial twofold dilutions 100 to 0 μM, 24 h at 37 °C, absorbance 600 nm, triplicate): < 1 µM; MIC (E. coli (K12); Escherichia coli, E. coli, broth microdilution (CLSI), Mueller Hinton broth, serial twofold dilutions 100 to 0 μM, 24 h at 37 °C, absorbance 600 nm, triplicate): < 6 µM; MIC (S. aureus (ATCC6538); Staphylococcus aureus, ATCC6538, S. aureus, broth microdilution (CLSI), Mueller Hinton broth, serial twofold dilutions 100 to 0 μM, 24 h at 37 °C, absorbance 600 nm, triplicate): < 3 µM; MIC (S. typhimurium (DA6192); Salmonella enterica, S. typhimurium (Table 1), broth microdilution (CLSI), Mueller Hinton broth, absorbance 600 nm): < 1 µM; MIC (M. luteus (NCIMB13267); Micrococcus luteus, NCIMB13267, M. luteus, broth microdilution (CLSI), Mueller Hinton broth, 24 h at 37 °C, absorbance 600 nm, triplicate): < 0.5 µM
2 | CCCCCCCCCC(=O)N[C@@H](Cc1c[nH]c2ccccc12)C(=O)N[C@H](CC(N)=O)C(=O)N[C@@H](CC(=O)O)C(=O)N[C@@H]1C(=O)NCC(=O)N[C@@H](CCCN)C(=O)N[C@@H](CC(=O)O)C(=O)N[C@H](C)C(=O)N[C@@H](CC(=O)O)C(=O)NCC(=O)N[C@H](CO)C(=O)N[C@@H]([C@H](C)CC(=O)O)C(=O)N[C@@H](CC(=O)c2ccccc2N)C(=O)O[C@@H]1C [daptomycin] |  | >250^c µM | >60 | <15 |  |  |  |  | MIC (B. subtilis (ATCC6633); B. subtilis, broth microdilution (CLSI), Mueller Hinton broth, serial twofold dilutions 100 to 0 μM, 24 h at 37 °C, absorbance 600 nm, triplicate): <7 µM; hemolysis (human erythrocytes; pH 7.2): 10%
3 | CC[C@H](C)CCCCC(=O)N[C@@H](CCN)C(=O)N[C@H](C(=O)N[C@@H](CCN)C(=O)N[C@H]1CCNC(=O)[C@H]([C@@H](C)O)NC(=O)[C@H](CCN)NC(=O)[C@H](CCN)NC(=O)[C@H](CC(C)C)NC(=O)[C@@H](Cc2ccccc2)NC(=O)[C@H](CCN)NC1=O)[C@@H](C)O [polymyxin B] (X1-[Dab]T[Dab][Dab][Dab][dF]L[Dab][Dab]T; lactam 4-C (inferred); N-terminus assumed) | <0.5 |  |  |  | <2 | <0.5 | <6 | <0.5 | 
4 | CN(C)[C@@H]1C(O)=C(C(N)=O)C(=O)[C@@]2(O)C(O)=C3C(=O)c4c(O)cccc4[C@@](C)(O)[C@H]3C[C@@H]12 [tetracycline] |  | UD (UD is for undetectable (>1000)) | <1 |  |  |  |  |  | MIC [1]: < 1 µM; MIC [2]: < 1 µM; MIC ([3]; Pseudomonas aeruginosa, ATCC27853, 24 h): < 6 µM; MIC (B. subtilis (ATCC6633); Bacillus subtilis, ATCC6633, 24 h): < 0.5 µM; MIC (E. coli (K12); Escherichia coli, 24 h): < 1.5 µM; MIC (S. aureus (ATCC6538); Staphylococcus aureus, ATCC6538, 24 h): < 0.5 µM; MIC (S. typhimurium (DA6192); Salmonella enterica, S. typhimurium DA6192 (wild type, Table 2), broth microdilution): < 1 µM; MIC (M. luteus (NCIMB13267); Micrococcus luteus, NCIMB13267, 24 h): < 0.5 µM
5 | KWKAFKKIEKMIRNIRNKIVK [V4A] |  |  |  |  |  |  |  |  | MIC [3, 11]: > 3 µM; MIC (E. coli (K12); [12]): > 3 µM; MIC (S. aureus (ATCC6538); [13]): > 12 µM; hemolysis (human erythrocytes): 1-2%; LC50, median (50%) lethal concentration (human erythrocytes; Ala-d3 ChoM mutants (Table S6)): > 250 µM
6 | KWKVFKKAEKMIRNIRNKIVK [I8A] |  |  |  |  |  |  |  |  | MIC [3, 11]: > 6 µM; MIC (E. coli (K12); [12]): > 3 µM; MIC (S. aureus (ATCC6538); [13]): > 25 µM; LC50, median (50%) lethal concentration (human erythrocytes; Ala-d3 ChoM mutants (Table S6)): > 250 µM
7 | KWKVFKKIEKMGRNIRNGIVK-NH2 [ChoC] | >12 | >250^d µM | >12 | <1 | >25 | >25 | >25 | >12 | 
8 | KWKVFKKIEKMGRNIRNGIVKAGPAIAVLGEAKAL-NH2 [CecB, Cecropin B] | <3 | >250^d µM | <3 | <1 | <3 | <3 | >6 | <3 | 
9 | KWKVLKKKIKMLRNRINGLVKAGPALKVKLQALAL-NH2 [CecM] | <1 | >250^d µM | <1 | <1 | <2 | <1 | <2 | <1 | 
10 | PGLa |  |  |  |  |  |  |  |  | mean hydrophobic moment [6]: 0.260
11 | magainin |  |  |  |  |  |  |  |  | mean hydrophobic moment [6]: 0.286
